Converted amounts (≈) assume the structure as drawn.
What was measured:
[1] = tested on: Streptococcus pyogenes; assay: Antibacterial activity against erythromycin-resistant Streptococcus pyogenes ATCC 19615 assessed as inhibition of visible bacterial growth incubated for 18 hrs by broth microdilution method; type: functional
[2] = tested on: Streptococcus agalactiae; assay: Antibacterial activity against erythromycin-resistant Streptococcus agalactiae 19-9 assessed as inhibition of visible bacterial growth incubated for 18 hrs by broth microdilution method; type: functional
[3] = tested on: Streptococcus agalactiae; assay: Antibacterial activity against erythromycin-resistant Streptococcus agalactiae 19-8 assessed as inhibition of visible bacterial growth incubated for 18 hrs by broth microdilution method; type: functional
[4] = tested on: Streptococcus pneumoniae; assay: Antibacterial activity against erythromycin-resistant Streptococcus pneumoniae SPN19-14 assessed as inhibition of visible bacterial growth incubated for 18 hrs by broth microdilution method; type: functional
[5] = tested on: Streptococcus pneumoniae; assay: Antibacterial activity against erythromycin-resistant Streptococcus pneumoniae SPN19-13 assessed as inhibition of visible bacterial growth incubated for 18 hrs by broth microdilution method; type: functional
[6] = tested on: Streptococcus pneumoniae; assay: Antibacterial activity against erythromycin-resistant Streptococcus pneumoniae SPN19-8 assessed as inhibition of visible bacterial growth incubated for 18 hrs by broth microdilution method; type: functional
[7] = tested on: Staphylococcus epidermidis; assay: Antibacterial activity against erythromycin-resistant Staphylococcus epidermidis 19-11 assessed as inhibition of visible bacterial growth incubated for 18 hrs by broth microdilution method; type: functional
[8] = tested on: Staphylococcus epidermidis; assay: Antibacterial activity against erythromycin-resistant Staphylococcus epidermidis 19-9 assessed as inhibition of visible bacterial growth incubated for 18 hrs by broth microdilution method; type: functional
[9] = tested on: Staphylococcus epidermidis; assay: Antibacterial activity against erythromycin-resistant Staphylococcus epidermidis 19-8 assessed as inhibition of visible bacterial growth incubated for 18 hrs by broth microdilution method; type: functional
[10] = tested on: Staphylococcus epidermidis; assay: Antibacterial activity against erythromycin-resistant Staphylococcus epidermidis 19-6 assessed as inhibition of visible bacterial growth incubated for 18 hrs by broth microdilution method; type: functional
[11] = tested on: Staphylococcus epidermidis; assay: Antibacterial activity against erythromycin-resistant Staphylococcus epidermidis 19-4 assessed as inhibition of visible bacterial growth incubated for 18 hrs by broth microdilution method; type: functional
[12] = tested on: Staphylococcus epidermidis; assay: Antibacterial activity against erythromycin-resistant Staphylococcus epidermidis 19-5 assessed as inhibition of visible bacterial growth incubated for 18 hrs by broth microdilution method; type: functional
[13] = tested on: Moraxella catarrhalis; assay: Antibacterial activity against Moraxella catarrhalis BCA 19-5 assessed as inhibition of bacterial growth incubated for 24 hrs by CLSI based broth microdilution method; type: functional; details: Moraxella catarrhalis, BCA 19-5, 24 h, read-out: MIC
[14] = tested on: Moraxella catarrhalis; assay: Antibacterial activity against Moraxella catarrhalis BCA 19-6 assessed as inhibition of bacterial growth incubated for 24 hrs by CLSI based broth microdilution method; type: functional; details: Moraxella catarrhalis, BCA 19-6, 24 h, read-out: MIC
[15] = tested on: Moraxella catarrhalis; assay: Antibacterial activity against Moraxella catarrhalis BCA 19-31 assessed as inhibition of bacterial growth incubated for 24 hrs by CLSI based broth microdilution method; type: functional; details: BCA 19-31, 24 h
[16] = tested on: Haemophilus influenzae; assay: Antibacterial activity against Haemophilus influenzae HIN 19-15 assessed as inhibition of bacterial growth incubated for 20 to 24 hrs by CLSI based broth microdilution method; type: functional; details: time 20-24 hrs
[17] = tested on: Haemophilus influenzae; assay: Antibacterial activity against Haemophilus influenzae HIN 19-18 assessed as inhibition of bacterial growth incubated for 20 to 24 hrs by CLSI based broth microdilution method; type: functional; details: HIN 19-18, time 20-24 hrs
[18] = Cytotoxicity against mouse AML12 cells assessed as reduction in cell viability incubated for 48 hrs by MTT assay; type: toxicity, cell-based
[19] = Metabolic stability in human liver microsome assessed as parent compound remaining in absence of NADPH measured at 60 mins by LC-MS/MS analysis; type: ADME; details: liver microsomes, read-out: Stability
[20] = Metabolic stability in human liver microsome assessed as parent compound remaining in presence of NADPH measured at 60 mins by LC-MS/MS analysis; type: ADME; details: liver microsomes, read-out: Stability
[21] = Metabolic stability in human liver microsome assessed as intrinsic clearance measured at 60 mins by LC-MS/MS analysis; type: ADME; details: liver microsomes, read-out: CLH
[22] = Metabolic stability in human liver microsome assessed as half life measured at 60 mins by LC-MS/MS analysis; type: ADME; details: liver microsomes
[23] = tested on: Staphylococcus epidermidis; assay: Potency index, ratio of telithromycin MIC to test compound MIC for antibacterial activity against erythromycin-resistant Staphylococcus epidermidis 19-11 assessed as inhibition of visible bacterial growth incubated for 18 hrs by broth microdilution method; type: functional
[24] = tested on: Staphylococcus epidermidis; assay: Potency index, ratio of telithromycin MIC to test compound MIC for antibacterial activity against erythromycin-resistant Staphylococcus epidermidis 19-9 assessed as inhibition of visible bacterial growth incubated for 18 hrs by broth microdilution method; type: functional
[25] = tested on: Staphylococcus epidermidis; assay: Potency index, ratio of telithromycin MIC to test compound MIC for antibacterial activity against erythromycin-resistant Staphylococcus epidermidis 19-8 assessed as inhibition of visible bacterial growth incubated for 18 hrs by broth microdilution method; type: functional
[26] = tested on: Staphylococcus epidermidis; assay: Potency index, ratio of telithromycin MIC to test compound MIC for antibacterial activity against erythromycin-resistant Staphylococcus epidermidis 19-6 assessed as inhibition of visible bacterial growth incubated for 18 hrs by broth microdilution method; type: functional
[27] = tested on: Staphylococcus epidermidis; assay: Potency index, ratio of telithromycin MIC to test compound MIC for antibacterial activity against erythromycin-resistant Staphylococcus epidermidis 19-5 assessed as inhibition of visible bacterial growth incubated for 18 hrs by broth microdilution method; type: functional
[28] = tested on: Staphylococcus epidermidis; assay: Potency index, ratio of telithromycin MIC to test compound MIC for antibacterial activity against erythromycin-resistant Staphylococcus epidermidis 19-4 assessed as inhibition of visible bacterial growth incubated for 18 hrs by broth microdilution method; type: functional
[29] = tested on: Haemophilus influenzae; assay: Antibacterial activity against Haemophilus influenzae HIN 20-18 assessed as inhibition of bacterial growth incubated for 20 to 24 hrs by CLSI based broth microdilution method; type: functional; details: time 20-24 hrs
[30] = tested on: Streptococcus pneumoniae; assay: Potency index, ratio of telithromycin MIC to test compound MIC for antibacterial activity against Streptococcus pneumoniae SPN19-13 assessed as inhibition of visible bacterial growth incubated for 18 hrs by broth microdilution method; type: functional
[31] = tested on: Streptococcus pneumoniae; assay: Potency index, ratio of telithromycin MIC to test compound MIC for antibacterial activity against Streptococcus pneumoniae SPN19-8 assessed as inhibition of visible bacterial growth incubated for 18 hrs by broth microdilution method; type: functional
[32] = tested on: Streptococcus pneumoniae; assay: Potency index, ratio of telithromycin MIC to test compound MIC for antibacterial activity against Streptococcus pneumoniae SPN19-14 assessed as inhibition of visible bacterial growth incubated for 18 hrs by broth microdilution method; type: functional

Row | Compound | MIC [1] | MIC [2] | MIC [4] | MIC [5] | MIC [6] | MIC [7] | MIC [8] | MIC [9] | MIC [10] | MIC [11] | MIC [12] | MIC [13] | MIC [14] | MIC [15] | MIC [16] | MIC [17] | CC50 at 48 h [18] | remaining at 1 h [19] | remaining at 1 h [20] | microsomal CLint [21] | also measured
1 | CC[C@H]1OC(=O)[C@@](C)(F)C(=O)[C@H](C)[C@@H](O[C@@H]2O[C@H](C)C[C@H](N(C)C)[C@H]2O)[C@](C)(OC)C[C@@H](C)C(=O)[C@H](C)[C@H]2N(CCCOC(=O)Nc3cccc(C)c3)C(=O)O[C@]12C | < 0.03 µg/mL | 0.06 µg/mL (≈ 0.073 µM) | < 0.03 µg/mL | < 0.03 µg/mL | 0.125 µg/mL (≈ 0.152 µM) | < 0.03 µg/mL | 0.06 µg/mL (≈ 0.073 µM) | < 0.03 µg/mL | 0.03 µg/mL (≈ 0.0365 µM) | < 0.03 µg/mL | < 0.03 µg/mL | < 0.03 µg/mL | < 0.03 µg/mL | < 0.03 µg/mL | 8 µg/mL (≈ 9.73 µM) | 8 µg/mL (≈ 9.73 µM) | 76.8 µM | 97.5% | 1.2% | 266 µL/min/mg | MIC [3]: < 0.03 µg/mL; half-life [22]: 5.2 min
2 | CC[C@H]1OC(=O)[C@@](C)(F)C(=O)[C@H](C)[C@@H](O[C@@H]2O[C@H](C)C[C@H](N(C)C)[C@H]2O)[C@](C)(OC)C[C@@H](C)C(=O)[C@H](C)[C@H]2N(CCCOC(=O)Nc3cccc(SC)c3)C(=O)O[C@]12C | < 0.03 µg/mL | 0.125 µg/mL (≈ 0.146 µM) | < 0.03 µg/mL | < 0.03 µg/mL | < 0.03 µg/mL | 0.03 µg/mL (≈ 0.0351 µM) | < 0.03 µg/mL | < 0.03 µg/mL | 0.03 µg/mL (≈ 0.0351 µM) | < 0.03 µg/mL | 0.03 µg/mL (≈ 0.0351 µM) | < 0.03 µg/mL | < 0.03 µg/mL | < 0.03 µg/mL | 2 µg/mL (≈ 2.34 µM) | 1 µg/mL (≈ 1.17 µM) | 34.4 µM |  |  |  | Ratio [23]: 4; Ratio [24]: 4; Ratio [25]: 4; Ratio [26]: 4; Ratio [27]: 4; Ratio [28]: 4; MIC [3]: < 0.03 µg/mL
3 | CC[C@H]1OC(=O)[C@@](C)(F)C(=O)[C@H](C)[C@@H](O[C@@H]2O[C@H](C)C[C@H](N(C)C)[C@H]2O)[C@](C)(OC)C[C@@H](C)C(=O)[C@H](C)[C@H]2N(CCCOC(=O)Nc3c(C)noc3C)C(=O)O[C@]12C | < 0.03 µg/mL | 4 µg/mL (≈ 4.84 µM) | 0.25 µg/mL (≈ 0.302 µM) | 0.25 µg/mL (≈ 0.302 µM) | 0.25 µg/mL (≈ 0.302 µM) | 0.125 µg/mL (≈ 0.151 µM) | 0.5 µg/mL (≈ 0.605 µM) | 0.25 µg/mL (≈ 0.302 µM) | 0.25 µg/mL (≈ 0.302 µM) | 0.25 µg/mL (≈ 0.302 µM) | 0.03 µg/mL (≈ 0.0363 µM) | 0.5 µg/mL (≈ 0.605 µM) | 0.5 µg/mL (≈ 0.605 µM) | 0.125 µg/mL (≈ 0.151 µM) | 1 µg/mL (≈ 1.21 µM) | 1 µg/mL (≈ 1.21 µM) | > 100 µM | 101% | 26.6% | 37.3 µL/min/mg | MIC [29]: 8 µg/mL (≈ 9.67 µM); half-life [22]: 37.2 min
4 | CC[C@H]1OC(=O)[C@@](C)(F)C(=O)[C@H](C)[C@@H](O[C@@H]2O[C@H](C)C[C@H](N(C)C)[C@H]2O)[C@](C)(OC)C[C@@H](C)C(=O)[C@H](C)[C@H]2N(CCCOC(=O)Nc3ccccc3C)C(=O)O[C@]12C | < 0.03 µg/mL | 0.5 µg/mL (≈ 0.608 µM) | 0.125 µg/mL (≈ 0.152 µM) | 0.125 µg/mL (≈ 0.152 µM) | 0.125 µg/mL (≈ 0.152 µM) | < 0.03 µg/mL | 0.25 µg/mL (≈ 0.304 µM) | 0.06 µg/mL (≈ 0.073 µM) | 0.125 µg/mL (≈ 0.152 µM) | 0.06 µg/mL (≈ 0.073 µM) | < 0.03 µg/mL | 0.125 µg/mL (≈ 0.152 µM) | 0.125 µg/mL (≈ 0.152 µM) | 0.05 µg/mL (≈ 0.0608 µM) | 4 µg/mL (≈ 4.87 µM) | 2 µg/mL (≈ 2.43 µM) | > 100 µM | 101% | 73.3% | 4 µL/min/mg | MIC [29]: 16 µg/mL (≈ 19.5 µM); half-life [22]: 176 min
5 | CC[C@H]1OC(=O)[C@@](C)(F)C(=O)[C@H](C)[C@@H](O[C@@H]2O[C@H](C)C[C@H](N(C)C)[C@H]2O)[C@](C)(OC)C[C@@H](C)C(=O)[C@H](C)[C@H]2N(CCCOC(=O)Nc3ccc4sccc4c3)C(=O)O[C@]12C | < 0.03 µg/mL | 0.25 µg/mL (≈ 0.289 µM) | 0.03 µg/mL (≈ 0.0347 µM) | < 0.03 µg/mL | 0.06 µg/mL (≈ 0.0694 µM) | < 0.03 µg/mL | 1 µg/mL (≈ 1.16 µM) | 0.06 µg/mL (≈ 0.0694 µM) | 0.06 µg/mL (≈ 0.0694 µM) | 0.03 µg/mL (≈ 0.0347 µM) | < 0.03 µg/mL |  |  |  |  |  | 11.6 µM |  |  |  | Ratio [30]: <4; Ratio [31]: <4; Ratio [23]: 4; Ratio [24]: 4; Ratio [25]: 4; Ratio [26]: 4; Ratio [27]: 4; Ratio [28]: 4; Ratio [32]: <4

— ChEMBL document CHEMBL5543097, “Synthesis and structure-activity relationships of novel 14-membered 2-fluoro ketolides with structural modification at the C11 position” (Eur J Med Chem, 2024)
